In patent US9949979B2, “Use of inhibitors of the activity or function of PI3K” (NOVARTIS AG, priority 2011, dated 2018):

Test system: TLR9
Test: TLR9-induced IFNalpha in human PBMC (CpG2216, AlphaLISA)
Type: cell-based
Conditions: read-out: TLR9-ligand induced IFNα in human PBMC IC50
Procedure: 2.4 Determination of TLR9-Induced IFNalpha in Human Peripheral Blood Mononuclear Cells (PBMCs) and Isolated Plasmacytoid Dendritic Cells (pDCs)
Human blood (ca. 75 ml) was collected in 10 S-Monovette tubes containing Heparin (S-Monovette 7.5 mL NH Heparin 16 IU/mL blood; Starstedt). Leucosep™ tubes (30 mL #227290; Greiner Bio-one) were prepared by addition of 15 ml lymphocyte separation medium LSM1077™ per tube (#J15-004; PAA Laboratories) and centrifugation for 30 sec at 1000 g. Some 25 ml blood was transferred to Leucosep™ tubes following dilution with equal parts of PBS (without Ca2+/Mg2+; #14190-094). […] The PBMC were counted using a Countess® Automated cell counter (sample was pre-diluted 1:10 in Media, prior to the addition of equal volume (10 μl) of Trypan Blue). […]
Compounds were pre-diluted in 100% v/v DMSO (#41640-100 mL; Sigma-Aldrich), followed by transfer in Media (to achieve a final DMSO concentration of 0.25%). […] Plates were briefly centrifuged (200×g for 2 min at 22° C.) and supernatant samples (30 μl) removed for quantification of IFNα levels.
For quantification of IFNalpha the human interferon AlphaLISA Kit (#AL264F) from PerkinElmer was used. […] Data were collected for analysis and quantification of IFNα levels.
Data were analysed using Excel XL fit 4.0 (Microsoft) with XLfit add-in (IDBS; version 4.3.2). […]

## CCC(=O)N1CC[C@H](Nc2ncnc3c2CN(c2cnc(OC)c(C(F)(F)F)c2)CC3)C1 [Example 67, 1-{(S)-3-[6-(6-Methoxy-5-trifluoromethyl-pyridin-3-yl)-5,6,7,8-tetrahydro-pyrido[4,3-d]pyrimidin-4-ylamino]-pyrrolidin-1-yl}-propan-1-one]
  IC50: 109 nM
